Values of other authors, collected in US20060275372A1 (Elan Pharma International Limited, priority 2005, published 2006).
Counter-ions that a name gives are not always drawn.

Conditions: fasting state as compared to the fed state

bioavailability: limited bioavailability
Structure (SMILES): Cc1ccc(NC(=O)c2ccc(CN3CCN(C)CC3)cc2)cc1Nc1nccc(-c2cccnc2)n1 [Imatinib mesylate, 4-[(4-Methyl-1-piperazinyl)methyl]-N-[4-methyl-3-[[4-(3-pyridinyl)-2-pyrimidinyl]amino]-phenyl]benzamide methanesulfonate]
